According to patent US4725578A, “Compounds having therapeutic effect and the preparation thereof” (Tobishi Pharmaceutical Co., Ltd., priority 1986, dated 1988):

Legend:
MM2 = MM2 (ip-ip), survival T/C; type: in vivo, mice; settings: for mice continuing to live more than 60 days after implantation (60<): Table 7, MM2 (i.P. - i.P.)
Description: (§1) In the Table, the symbol T/C % means Treatment/Control %, that is the increase in life when the control is 100. The values are obtained by implanting tumor cells to groups of mice (or rats), administering the compound being tested in various amounts every 24 hours after the implantation of the tumor cells and then calculating the ratio, the median survival time of the group to which the compound has been administered to the survival of the control, multiplied by a factor of 100. This method is used in the screening of U.S. National Cancer Institute. […]
(§2) In Table 7, the symbol "i.P.-i.P." means that the tumor cells are implanted intraperitoneally and the compounds being tested are also administered intraperitoneally. The symbol "TR" is the therapeutic ratio obtained by dividing the dose which provides a maximum T/C value, by the dose which provides a minimum T/C value.
The term in Table 7, last column "3/6 60<", means that 3 mice out of 6 mice continue to live more than 60 days after the implantation of the tumor cells.

Colon 26 = Colon 26 (ip-ip), survival T/C; type: in vivo; settings: 4 mg/kg × 9
Description: (§3) In the Table, the symbol T/C % means Treatment/Control %, that is the increase in life when the control is 100. The values are obtained by implanting tumor cells to groups of mice (or rats), administering the compound being tested in various amounts every 24 hours after the implantation of the tumor cells and then calculating the ratio, the median survival time of the group to which the compound has been administered to the survival of the control, multiplied by a factor of 100. This method is used in the screening of U.S. National Cancer Institute.

L-1210 cells = assay: Antineoplastic action against implanted L-1210 cells (ip-ip), survival T/C; type: in vivo, CDFl mice
Description: In this animal test, the antineoplastic action against the implanted tumor was examined in lower animals, in vivo, in respect of the compounds according to the present invention, by using CDFl mice.
To the peritoneal cavity of each group of mice consisting of six CDFl mice per group, 10^6 /0.1 ml of P-388 cells or 10^5 /0.1 ml of L-1210 cells were implanted. […] While to the control groups of CDFl mice, P-388 and L-1210 cells were implanted in the same manner and they were bred without administration of the compounds.
as §3, §2

P 388 = P 388 (ip-iv), survival T/C; type: in vivo, mice; settings: 5 mg/kg × 5
Description: as §3
In Table 9, "iv" and "sc" means that the administration of the compounds is carried out intravenously and the implantation of the tumor cells is carried out subcutaneously.

MOPC-104E = MOPC-104E (ip-ip), survival T/C; type: in vivo; settings: 2 mg/kg × 9 times
Description: as §3

P-388 cells = assay: Antineoplastic action against implanted P-388 cells (ip-ip), survival T/C; type: in vivo, CDFl mice; settings: for T/C % (Treatment/Control %): Table 6, P388, intraperitoneal
Description: To the peritoneal cavity of each group of mice consisting of six CDFl mice per group, 10^6 /0.1 ml of P-388 cells or 10^5 /0.1 ml of L-1210 cells were implanted. […]
In the Table, the symbol T/C % means Treatment/Control %, that is the increase in life when the control is 100. […] This method is used in the screening of U.S. National Cancer Institute.
as §2

Yoshida sarcoma = Yoshida sarcoma (ip-ip), survival T/C; type: in vivo
Description: as §3

B-16 melanoma = assay: B16 melanoma (ip-ip), survival T/C; type: in vivo, mice
Description: as §1, §2

## CCCCCCOc1ccc2cc1Oc1ccc(cc1)CC1C(=O)N(C)C(C2)C(=O)NC(C)C(=O)NC(C)C(=O)N(C)C(Cc2ccc(OC)cc2)C(=O)NC(C)C(=O)N1C (stereo not shown) [Ex. 2, n-hexylether of the compound TPC-A]
MM2; (see Table 7)
  effectiveness against MM2: effective
MM2; dose 2 mg/kg
  mice continuing to live more than 60 days after implantation (60<): 3/6
MM2; dose 4 mg/kg
  mice continuing to live more than 60 days after implantation (60<): 1/7
MM2; Table 7, dose 0.5 mg/kg
  MM2 (i.P. - i.P.) T/C (%): 110.3%
MM2; Table 7, dose 2 mg/kg
  MM2 (i.P. - i.P.) T/C (%): 129.3%
MM2; Table 7, dose 4 mg/kg
  MM2 (i.P. - i.P.) T/C (%): 161.8%
Colon 26
  T/C: 133.7%
  mice living more than 60 days (60<): 2/6
L-1210 cells; Table 7, dose 0.5 mg/kg
  L1210 (i.P. - i.P.) T/C (%): 115.6%
L-1210 cells; Table 7, dose 2 mg/kg
  L1210 (i.P. - i.P.) T/C (%): 126.6%
L-1210 cells; Table 7, dose 4 mg/kg
  L1210 (i.P. - i.P.) T/C (%): 130.9%
P 388
  T/C: 118.9%
MOPC-104E
  T/C: 145.3%
P-388 cells; dose 0.05 mg/kg
  T/C % (Treatment/Control %): 110.3%
P-388 cells; dose 0.5 mg/kg
  T/C % (Treatment/Control %): 137.3%
P-388 cells; dose 2 mg/kg
  T/C % (Treatment/Control %): 153.5%
P-388 cells; dose 4 mg/kg
  T/C % (Treatment/Control %): 173.0%
P-388 cells; Table 7, dose 0.05 mg/kg
  P388 (i.P. - i.P.) T/C (%): 130.4%
P-388 cells; Table 7, dose 0.5 mg/kg
  P388 (i.P. - i.P.) T/C (%): 143.5%
P-388 cells; Table 7, dose 2 mg/kg
  P388 (i.P. - i.P.) T/C (%): 150.0%
P-388 cells; Table 7, dose 5 mg/kg
  P388 (i.P. - i.P.) T/C (%): 176.1%
Yoshida sarcoma; 0.1 mg/kg × 5
  T/C: 129.7%
Yoshida sarcoma; 0.5 mg/kg × 5
  T/C: 173.6%
Yoshida sarcoma; 1 mg/kg × 5
  T/C: 160.4%
Yoshida sarcoma; 2.5 mg/kg × 5
  T/C: 149.5%
B-16 melanoma; (see Table 7)
  effectiveness against B-16 melanoma: effective
B-16 melanoma; Table 7, dose 0.5 mg/kg
  B16 (i.P. - i.P.) T/C (%): 130.5%
B-16 melanoma; Table 7, dose 2 mg/kg
  B16 (i.P. - i.P.) T/C (%): 158.2%
B-16 melanoma; Table 7, dose 4 mg/kg
  B16 (i.P. - i.P.) T/C (%): 136.2%

## CCOc1ccc2cc1Oc1ccc(cc1)CC1C(=O)N(C)C(C2)C(=O)NC(C)C(=O)NC(C)C(=O)N(C)C(Cc2ccc(OC)cc2)C(=O)NC(C)C(=O)N1C (stereo not shown) [Ex. 3]
P-388 cells; dose 0.05 mg/kg
  T/C % (Treatment/Control %): 137.3%
P-388 cells; dose 0.5 mg/kg
  T/C % (Treatment/Control %): 165.4%
P-388 cells; dose 2 mg/kg
  T/C % (Treatment/Control %): 162.2%

## COc1ccc(CC2C(=O)NC(C)C(=O)N(C)C3Cc4ccc(cc4)Oc4cc(ccc4OC(C)C)CC(C(=O)NC(C)C(=O)NC(C)C(=O)N2C)N(C)C3=O)cc1 (stereo not shown) [Ex. 5]
P-388 cells; dose 0.05 mg/kg
  T/C % (Treatment/Control %): 142.4%
P-388 cells; dose 0.5 mg/kg
  T/C % (Treatment/Control %): 175.1%
P-388 cells; dose 2 mg/kg
  T/C % (Treatment/Control %): 105.4%

## CCCCCOc1ccc2cc1Oc1ccc(cc1)CC1C(=O)N(C)C(C2)C(=O)NC(C)C(=O)NC(C)C(=O)N(C)C(Cc2ccc(OC)cc2)C(=O)NC(C)C(=O)N1C (stereo not shown) [Ex. 7]
P-388 cells; dose 0.05 mg/kg
  T/C % (Treatment/Control %): 122.2%
P-388 cells; dose 0.5 mg/kg
  T/C % (Treatment/Control %): 142.7%
P-388 cells; dose 2 mg/kg
  T/C % (Treatment/Control %): 165.4%

## CCCCCCCOc1ccc2cc1Oc1ccc(cc1)CC1C(=O)N(C)C(C2)C(=O)NC(C)C(=O)NC(C)C(=O)N(C)C(Cc2ccc(OC)cc2)C(=O)NC(C)C(=O)N1C (stereo not shown) [Ex. 8]
P-388 cells; dose 0.05 mg/kg
  T/C % (Treatment/Control %): 115.8%
P-388 cells; dose 0.5 mg/kg
  T/C % (Treatment/Control %): 144.7%
P-388 cells; dose 2 mg/kg
  T/C % (Treatment/Control %): 150.1%
P-388 cells; dose 4 mg/kg
  T/C % (Treatment/Control %): 164.0%

## CCCCCCCCOc1ccc2cc1Oc1ccc(cc1)CC1C(=O)N(C)C(C2)C(=O)NC(C)C(=O)NC(C)C(=O)N(C)C(Cc2ccc(OC)cc2)C(=O)NC(C)C(=O)N1C (stereo not shown) [Ex. 9]
P-388 cells; dose 0.05 mg/kg
  T/C % (Treatment/Control %): 136.1%
P-388 cells; dose 0.5 mg/kg
  T/C % (Treatment/Control %): 146.8%
P-388 cells; dose 2 mg/kg
  T/C % (Treatment/Control %): 162.9%
P-388 cells; dose 4 mg/kg
  T/C % (Treatment/Control %): 152.2%

## CCCCCCCCCOc1ccc2cc1Oc1ccc(cc1)CC1C(=O)N(C)C(C2)C(=O)NC(C)C(=O)NC(C)C(=O)N(C)C(Cc2ccc(OC)cc2)C(=O)NC(C)C(=O)N1C (stereo not shown) [Ex. 10]
P-388 cells; dose 0.05 mg/kg
  T/C % (Treatment/Control %): 112.5%
P-388 cells; dose 0.5 mg/kg
  T/C % (Treatment/Control %): 141.5%
P-388 cells; dose 2 mg/kg
  T/C % (Treatment/Control %): 150.1%
P-388 cells; dose 4 mg/kg
  T/C % (Treatment/Control %): 155.4%

## CCOC(=O)CCCOc1ccc2cc1Oc1ccc(cc1)CC1C(=O)N(C)C(C2)C(=O)NC(C)C(=O)NC(C)C(=O)N(C)C(Cc2ccc(OC)cc2)C(=O)NC(C)C(=O)N1C (stereo not shown) [Ex. 19(2), ethoxycarbonylpropylether (2) of TPC-A]
P-388 cells; dose 0.05 mg/kg
  T/C % (Treatment/Control %): 113.8%
P-388 cells; dose 0.5 mg/kg
  T/C % (Treatment/Control %): 139.6%
P-388 cells; dose 2 mg/kg
  T/C % (Treatment/Control %): 141.7%
P-388 cells; dose 4 mg/kg
  T/C % (Treatment/Control %): 153.1%

## COc1ccc(CC2C(=O)NC(C)C(=O)N(C)C3Cc4ccc(cc4)Oc4cc(ccc4OC4CCCCO4)CC(C(=O)NC(C)C(=O)NC(C)C(=O)N2C)N(C)C3=O)cc1 (stereo not shown) [Ex. 20, tetrahydropyranylether of TPC-A]
P-388 cells; dose 0.05 mg/kg
  T/C % (Treatment/Control %): 138.4%
P-388 cells; dose 0.5 mg/kg
  T/C % (Treatment/Control %): 164.3%
P-388 cells; dose 2 mg/kg
  T/C % (Treatment/Control %): 121.1%

## CCC(=O)Oc1ccc2cc1Oc1ccc(cc1)CC1C(=O)N(C)C(C2)C(=O)NC(C)C(=O)NC(C)C(=O)N(C)C(Cc2ccc(OC)cc2)C(=O)NC(C)C(=O)N1C (stereo not shown) [Ex. 23]
P-388 cells; dose 0.05 mg/kg
  T/C % (Treatment/Control %): 129.0%
P-388 cells; dose 0.5 mg/kg
  T/C % (Treatment/Control %): 145.3%
P-388 cells; dose 2 mg/kg
  T/C % (Treatment/Control %): 164.4%
P-388 cells; dose 10 mg/kg
  T/C % (Treatment/Control %): 175.0%
